The numbers were not newly measured in US20110052650A1, “POROUS CRYSTALLINE HYBRID SOLID FOR ADSORBING AND RELEASING GAS OF BIOLOGICAL INTEREST” (Centre National De La Recherche Scientifique - CNR S, priority 2008, published 2011), which cites them from elsewhere.

As a reminder, the pKa is the negative logarithm of the acid dissociation constant.

Consider `S` [H2S], for which the pKa is listed as 6.8.
